From patent US20110319392A1, “Thiazole Sulfonamide And Oxazole Sulfonamide Kinase Inhibitors” (priority 2009, published 2011) come the findings set out here.

The target of one experiment is T1, EGFR (Homo sapiens, UniProt P00533).
T1 construct: made in house; host or cells: baculovirus expression system
Briefly: EGFR substrate phosphorylation assay (HTRF). The class given is biochemical. The essentials:
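Baculovirus-expressed EGFR (0.8 nM) or ErbB2 (10 nM) in enzyme mix, preincubated 1 h at 20 °C with compound (0.00027–47.6 μM final), then 90 min at 20 °C with substrate mix of 20 μM ATP, 0.8 uM biotinylated Peptide C, MnCl2, MOPS pH 7.5. Phosphotyrosine by HTRF; pIC50 reported.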

For the next experiment, the system named is Colo205 tumor cells. Briefly: Cell growth inhibition assay (CellTiter-Glo), Colo205. The class given is cell-based, Human. To be noted: Homo sapiens, COLO 205, 72 h; 3 days incubation. The essentials:
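Cells plated at 500 cells/well in their growth media, dosed next day with nine-step 1:3 compound dilutions (final DMSO 0.2%), then incubated 3 days at 37° C, 5% CO2. Total ATP read by CellTiter-Glo luminescence as a surrogate for cell number; IC50 interpolated from 4-parameter fit versus DMSO controls.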

T1 sequence (P00533 25-1210): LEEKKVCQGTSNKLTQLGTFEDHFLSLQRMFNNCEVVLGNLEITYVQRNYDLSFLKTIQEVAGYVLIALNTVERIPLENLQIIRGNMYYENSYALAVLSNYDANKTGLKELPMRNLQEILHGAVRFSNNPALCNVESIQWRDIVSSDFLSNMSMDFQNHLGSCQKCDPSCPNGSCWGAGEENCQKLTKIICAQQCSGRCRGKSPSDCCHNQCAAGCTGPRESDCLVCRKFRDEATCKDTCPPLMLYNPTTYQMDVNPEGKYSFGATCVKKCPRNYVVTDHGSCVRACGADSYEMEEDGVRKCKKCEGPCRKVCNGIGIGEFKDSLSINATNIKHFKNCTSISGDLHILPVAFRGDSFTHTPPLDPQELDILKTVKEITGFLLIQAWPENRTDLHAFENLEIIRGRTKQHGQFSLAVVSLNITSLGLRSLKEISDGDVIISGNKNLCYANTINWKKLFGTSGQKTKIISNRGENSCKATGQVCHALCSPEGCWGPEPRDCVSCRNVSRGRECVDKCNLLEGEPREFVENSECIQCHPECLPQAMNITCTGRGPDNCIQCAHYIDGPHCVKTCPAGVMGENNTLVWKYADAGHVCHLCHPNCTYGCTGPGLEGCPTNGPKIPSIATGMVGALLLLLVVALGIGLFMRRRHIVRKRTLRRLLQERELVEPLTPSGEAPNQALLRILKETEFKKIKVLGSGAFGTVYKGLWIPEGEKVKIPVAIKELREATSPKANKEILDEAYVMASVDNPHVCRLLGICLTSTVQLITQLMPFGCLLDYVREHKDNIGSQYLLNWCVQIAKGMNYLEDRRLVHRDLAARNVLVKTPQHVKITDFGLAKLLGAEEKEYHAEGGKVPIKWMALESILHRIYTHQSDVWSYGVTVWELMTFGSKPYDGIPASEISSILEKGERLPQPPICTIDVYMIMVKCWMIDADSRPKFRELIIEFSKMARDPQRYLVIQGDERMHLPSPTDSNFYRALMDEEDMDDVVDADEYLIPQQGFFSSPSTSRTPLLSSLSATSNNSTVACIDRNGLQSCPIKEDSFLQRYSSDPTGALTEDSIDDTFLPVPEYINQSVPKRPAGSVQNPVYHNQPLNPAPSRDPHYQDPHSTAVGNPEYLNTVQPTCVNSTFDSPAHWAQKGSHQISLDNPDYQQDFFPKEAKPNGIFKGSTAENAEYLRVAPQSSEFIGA

Turning to `CCc1nc(-c2cccc(NS(=O)(=O)c3ccccc3)c2)c(-c2ccnc(Nc3ccc(N4CCN(C(C)=O)CC4)nc3)n2)s1` [Example 3, N-{3-[5-(2-{[6-(4-Acetyl-1-piperazinyl)-3-pyridinyl]amino}-4-pyrimidinyl)-2-ethyl-1,3-thiazol-4-yl]phenyl}benzenesulfonamide], the IC50 at EGFR was above 1000 nM; in the experiment with Colo205 tumor cells it was below 100 nM.

For the molecule `CCc1nc(-c2cccc(NS(=O)(=O)c3ccccc3)c2)c(-c2ccnc(Nc3ccc(N4CCOCC4)c(F)c3)n2)s1` [Example 4], the IC50 is above 1000 nM against EGFR and 100 to 1000 nM in the experiment with Colo205 tumor cells.

For the molecule `CCc1nc(-c2cccc(NS(=O)(=O)c3ccccc3)c2)c(-c2ccnc(Nc3ccc(OC)c(N4CCN(CCS(C)(=O)=O)CC4)c3)n2)s1` [Example 5, N-[3-(2-Ethyl-5-{2-[(4-(methyloxy)-3-{4-[2-(methylsulfonyl)ethyl]-1-piperazinyl}phenyl)amino]-4-pyrimidinyl}-1,3-thiazol-4-yl)phenyl]benzenesulfonamide], the IC50 is 100 to 1000 nM on EGFR and below 100 nM in the experiment with Colo205 tumor cells.

Consider `CC(=O)N1CCc2cc(Nc3nccc(-c4sc(C(C)C)nc4-c4cccc(NS(=O)(=O)c5ccccc5)c4)n3)ccc21` [Example 71], for which the IC50 at EGFR was 100 to 1000 nM; with Colo205 tumor cells, below 100 nM.

Regarding `CC(C)c1nc(-c2cccc(NS(=O)(=O)c3ccccc3)c2)c(-c2ccnc(Nc3ccc(CC4CCN(CCS(C)(=O)=O)CC4)c(F)c3)n2)s1` [Example 72], the IC50 against EGFR and in the experiment with Colo205 tumor cells was 100 to 1000 nM throughout.

`CC(C)c1nc(-c2cccc(NS(=O)(=O)c3ccccc3)c2)c(-c2ccnc(Nc3ccc(F)c(N4CCN(CCS(C)(=O)=O)CC4)c3)n2)s1` [Example 73]: the IC50 on EGFR is 100 to 1000 nM; in the experiment on Colo205 tumor cells, below 100 nM.

With `CC(C)c1nc(-c2cccc(NS(=O)(=O)c3ccccc3)c2)c(-c2ccnc(Nc3ccc(N4CCN(CCS(C)(=O)=O)CC4)c(F)c3F)n2)s1` [Example 74], the IC50 is above 1000 nM at EGFR and 100 to 1000 nM in the experiment on Colo205 tumor cells.

For `CC(C)c1nc(-c2cccc(NS(=O)(=O)c3c(F)cccc3F)c2)c(-c2ccnc(Nc3ccc(N4CCN(C(C)C)CC4)cc3O)n2)s1` [Example 78], the values for the IC50 against EGFR and in the experiment with Colo205 tumor cells were 100 to 1000 nM and below 100 nM, respectively.

In the case of `COc1cc(N2CCN(CCF)CC2)ccc1Nc1nccc(-c2sc(C(C)C)nc2-c2cccc(NS(=O)(=O)c3c(F)cccc3F)c2)n1` [Example 79], the IC50 on EGFR and with Colo205 tumor cells was 100 to 1000 nM throughout.

For `CC(C)c1nc(-c2cccc(NS(=O)(=O)c3c(F)cccc3F)c2)c(-c2ccnc(Nc3ccc(N4CCN(CCO)CC4)nc3)n2)s1` [Example 80], the IC50 on EGFR and in the experiment on Colo205 tumor cells was below 100 nM throughout.

Take `CC(C)c1nc(-c2cccc(NS(=O)(=O)c3c(F)cccc3F)c2)c(-c2ccnc(Nc3cccc(N4CCN(C)CC4)c3)n2)s1` [Example 81]: the IC50 on EGFR and with Colo205 tumor cells was below 100 nM throughout.

For the molecule `CC(C)c1nc(-c2cccc(NS(=O)(=O)c3c(F)cccc3F)c2)c(-c2ccnc(Nc3ccc(N4CCCNCC4)nc3)n2)s1` [Example 82], the IC50 against EGFR and in the experiment with Colo205 tumor cells was below 100 nM each time.

Take `CC(C)c1nc(-c2cc(F)cc(NS(=O)(=O)c3ccc(F)cc3)c2)c(-c2ccnc(Nc3ccc(N4CCOCC4)c(F)c3)n2)s1` [Example 83]: the IC50 against EGFR was above 1000 nM; in the experiment with Colo205 tumor cells, 100 to 1000 nM.

In the case of `CC(C)c1nc(-c2cc(F)cc(NS(=O)(=O)c3c(F)cccc3F)c2)c(-c2ccnc(Nc3ccc(N4CCOCC4)nc3)n2)s1` [Example 84], the IC50 is 100 to 1000 nM on EGFR and below 100 nM with Colo205 tumor cells.

With `CC(C)c1nc(-c2cc(F)cc(NS(=O)(=O)c3c(F)cccc3F)c2)c(-c2ccnc(Nc3ccc(N4CCOCC4)c(F)c3)n2)s1` [Example 85], the values for the IC50 against EGFR and in the experiment on Colo205 tumor cells were above 1000 nM and below 100 nM, respectively.

For `CC(C)c1nc(-c2cccc(NS(=O)(=O)c3c(F)cccc3F)c2)c(-c2ccnc(Nc3cc(F)c(N4CCN(CCS(C)(=O)=O)CC4)cc3F)n2)s1` [Example 87], the IC50 is above 1000 nM against EGFR and below 100 nM with Colo205 tumor cells.

As for `CC(C)c1nc(-c2cccc(NS(=O)(=O)c3c(F)cccc3F)c2)c(-c2ccnc(Nc3ccc(N4CCCN(CCS(C)(=O)=O)CC4)nc3)n2)s1` [Example 88], the IC50 is 100 to 1000 nM at EGFR and below 100 nM in the experiment with Colo205 tumor cells.

Consider `CC(C)c1nc(-c2cccc(NS(=O)(=O)c3c(F)cccc3F)c2)c(-c2ccnc(Nc3ccc(N4CC[C@@H](O)C4)nc3)n2)s1` [Example 89], for which the values for the IC50 against EGFR and in the experiment with Colo205 tumor cells were 100 to 1000 nM and below 100 nM, respectively.

As to `Cc1cc(N2CCC(N3CCCCC3)CC2)ccc1Nc1nccc(-c2sc(C(C)C)nc2-c2cccc(NS(=O)(=O)c3c(F)cccc3F)c2)n1` [Example 91], the IC50 on EGFR and with Colo205 tumor cells was below 100 nM in each case.

Take `CC(C)c1nc(-c2cccc(NS(=O)(=O)c3ccccc3)c2)c(-c2ccnc(Nc3ccc(N4CCOCC4)cn3)n2)s1` [Example 92]: the IC50 is above 1000 nM on EGFR and 100 to 1000 nM with Colo205 tumor cells.

Consider `C=C(C)c1nc(-c2cccc(NS(=O)(=O)c3c(F)cccc3F)c2)c(-c2ccnc(Nc3ccc(N4CCN(CCF)CC4)c(F)c3)n2)s1` [Example 93], for which the IC50 against EGFR is 100 to 1000 nM; in the experiment on Colo205 tumor cells, below 100 nM.

Consider `CC(C)c1nc(-c2ccc(F)c(NS(=O)(=O)c3c(F)cccc3F)c2)c(-c2ccnc(Nc3ccc(N4CCN(CCS(C)(=O)=O)CC4)c(F)c3)n2)s1` [Example 95], for which the IC50 is 100 to 1000 nM against EGFR and below 100 nM with Colo205 tumor cells.

With `CC(=O)N1CCN(c2ccc(Nc3nccc(-c4sc(C(C)C)nc4-c4cccc(NS(=O)(=O)c5cc(F)ccc5F)c4)n3)cn2)CC1` [Example 96], the IC50 is 100 to 1000 nM against EGFR and below 100 nM in the experiment with Colo205 tumor cells.
